Earlier results as cited in patent US11458199B2, “Liposome formulations” (OPKO Pharmaceuticals, LLC, priority 2012, dated 2022).

Columns and labels:
[1] = test system: PCME; settings: retrospective study, prevention of PCME after cataract surgery
[2] = molecular target: VEGF; settings: read-out: binding affinity to VEGF (Kd)
Sequence of VEGF (P15692 214-315 limits assumed): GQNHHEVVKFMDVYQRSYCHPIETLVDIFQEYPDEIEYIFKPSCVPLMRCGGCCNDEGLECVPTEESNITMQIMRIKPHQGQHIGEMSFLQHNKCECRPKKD

Compound | postoperative rate of macular edema [1] [%] | Kd [2] [nM]
C[C@@H]1C[C@H]2[C@@H]3CCC4=CC(=O)C=C[C@]4(C)[C@@]3(F)[C@@H](O)C[C@]2(C)[C@@]1(O)C(=O)COP(=O)(O)O [dexamethasone sodium phosphate 0.1%, dexamethasone sodium phosphate] | 4.1 | 
CC(=O)OCC(=O)[C@@]1(O)CC[C@H]2[C@@H]3CCC4=CC(=O)C=C[C@]4(C)[C@H]3[C@@H](O)C[C@@]21C [prednisolone acetate 1%, prednisolone acetate] | 4.0 | 
Ranibizumab: recombinant humanized IgG1 kappa isotype monoclonal antibody fragment that binds VEGF-A |  | ~0.14
